Literature values in patent US20070190117A1 (priority 2003, published 2007).

Conditions: galanthamine as hydrobromide or another pharmacologically acceptable salt

COc1ccc2c3c1O[C@H]1C[C@@H](O)C=C[C@@]31CCN(C)C2 [galanthamine, 4a,5,9,11,12-hexahydro-3-methoxy-11-methyl[6H]-benzofuro-[3a,3,2ef][2]benzazepine-6-ol]
half life in plasma: approx. 5 h
